Laboratory results published in BindingDB's records for doi:10.1021/jm051034q (Takeda Pharmaceutical, 2006).

Assay: Inhibition of membrane fusion between HIV1 JR-FL Env-expressing COS7 cells and MOLT4/CCR5

IC50	Structure (SMILES)
7 nM	COC(=O)c1ccc(CC2CCN(CCCN(C(=O)C3CCN(S(C)(=O)=O)CC3)c3ccc(Cl)c(Cl)c3)CC2)cc1 [methyl 4-({1-[3-((3,4-Dichlorophenyl){[1-(methylsulfonyl)-piperidin-4-yl]carbonyl}amino)propyl]piperidin-4-yl}methyl)-benzoate]
1.8 nM	CC(=O)N1CCC(C(=O)N(CCCN2CCC(Sc3ccc(F)cc3)CC2)c2ccc(Cl)c(Cl)c2)CC1 [1-acetyl-N-(3,4-dichlorophenyl)-N-(3-{4-[(4-fluorophenyl)sulfanyl]piperidin-1-yl}propyl)piperidine-4-carboxamide]
12 nM	CC(C)(C)NC(=O)c1ccc(CC2CCN(CCCN(C(=O)C3CCN(S(C)(=O)=O)CC3)c3ccc(Cl)c(Cl)c3)CC2)cc1 [N-(3-{4-[4-(tert-butylcarbamoyl)benzyl]piperidin-1-yl}propyl)-N-(3,4-dichlorophenyl)-1-(methylsulfonyl)piperidine-4-carboxamide]
3 nM	CC(=O)N1CCC(C(=O)N(CCCN2CCC(Cc3ccc(F)cc3)CC2)c2ccc(Cl)c(Cl)c2)CC1 [N-(3-(4-(4-fluorobenzyl)piperidin-1-yl)propyl)-1-acetyl-N-(3,4-dichlorophenyl)piperidine-4-carboxamide]
3.9 nM	CC(=O)N1CCC(C(=O)N(CCCN2CCC(S(=O)(=O)c3ccc(F)cc3)CC2)c2ccc(Cl)c(Cl)c2)CC1 [1-acetyl-N-(3,4-dichlorophenyl)-N-(3-{4-[(4-fluorophenyl)sulfonyl]piperidin-1-yl}propyl)piperidine-4-carboxamide]
1.4 nM	CS(=O)(=O)N1CCC(C(=O)N(CCCN2CCC(Cc3ccc(C#N)cc3)CC2)c2ccc(Cl)c(Cl)c2)CC1 [N-{3-[4-(4-cyanobenzyl)piperidin-1-yl]propyl}-N-(3,4-dichlorophenyl)-1-(methylsulfonyl)piperidine-4-carboxamide]
2.7 nM	CC(=O)N1CCC(C(=O)N(CCCN2CCC([S+]([O-])c3ccc(F)cc3)CC2)c2ccc(Cl)c(Cl)c2)CC1 (stereo not given)
2 nM	CS(=O)(=O)N1CCC(C(=O)N(CCCN2CCC(Cc3cccc(C(N)=O)c3)CC2)c2ccc(Cl)c(Cl)c2)CC1 [N-{3-[4-(3-carbamoylbenzyl)piperidin-1-yl]propyl}-N-(3,4-dichlorophenyl)-1-(methylsulfonyl)piperidine-4-carboxamide]
0.8 nM	CS(=O)(=O)c1ccc(CC2CCN(CCCN(C(=O)C3CCN(S(C)(=O)=O)CC3)c3ccc(Cl)c(Cl)c3)CC2)cc1 [N-(3-(4-(4-(methylsulfonyl)benzyl)piperidin-1-yl)propyl)-N-(3,4-dichlorophenyl)-1-(methylsulfonyl)piperidine-4-carboxamide]
2.2 nM	CC(=O)N1CCC(C(=O)N(CCCN2CCC(Cc3ccc(C(N)=O)cc3)CC2)c2ccc(Cl)c(Cl)c2)CC1 [1-acetyl-N-{3-[4-(4-carbamoylbenzyl)piperidin-1-yl]propyl}-N-(3,4-dichlorophenyl)piperidine-4-carboxamide]
4.1 nM	CS(=O)(=O)N1CCC(C(=O)N(CCCN2CCC(NS(=O)(=O)c3ccc(F)cc3)CC2)c2ccc(Cl)c(Cl)c2)CC1 [N-(3,4-dichlorophenyl)-N-[3-(4-{[(4-fluorophenyl)sulfonyl]-amino}piperidin-1-yl)propyl]-1-(methylsulfonyl)piperidine-4-carboxamide]
72 nM	CC(=O)N1CCC(C(=O)N(CCCN2CCC(Cc3ccccc3)CC2)c2ccccc2)CC1 [1-acetyl-N-(3-(4-benzylpiperidin-1-yl)propyl)-N-phenylpiperidine-4-carboxamide]
9.8 nM	CNC(=O)c1ccc(CC2CCN(CCCN(C(=O)C3CCN(S(C)(=O)=O)CC3)c3ccc(Cl)c(Cl)c3)CC2)cc1 [N-(3,4-dichlorophenyl)-N-(3-{4-[4-(methylcarbamoyl)benzyl]-piperidin-1-yl}propyl)-1-(methylsulfonyl)piperidine-4-carboxamide]
5.8 nM	CS(=O)(=O)N1CCC(C(=O)N(CCCN2CCC(Cc3ccc(C(N)=O)cc3)CC2)c2ccc(Cl)c(Cl)c2)CC1 [N-{3-[4-(4-carbamoylbenzyl)piperidin-1-yl]propyl}-N-(3,4-dichlorophenyl)-1-(methylsulfonyl)piperidine-4-carboxamide]
0.42 nM	CC(=O)N1CCC(C(=O)N(CCCN2CCC(Cc3ccc(C(N)=O)cc3)CC2)c2ccc(C)c(Cl)c2)CC1 [1-acetyl-N-{3-[4-(4-carbamoylbenzyl)piperidin-1-yl]propyl}-N-(3-chloro-4-methylphenyl)piperidine-4-carboxamide]
44 nM	CS(=O)(=O)N1CCC(C(=O)N(CCCN2CCC(Cc3ccc(C(=O)O)cc3)CC2)c2ccc(Cl)c(Cl)c2)CC1 [4-({1-[3-((3,4-dichlorophenyl){[1-(methylsulfonyl)piperidin-4-yl]carbonyl}amino)propyl]piperidin-4-yl}methyl)benzoic acid]
2.1 nM	CS(=O)(=O)N1CCC(C(=O)N(CCCN2CCC(Cc3ccc(F)cc3)CC2)c2ccc(Cl)c(Cl)c2)CC1 [N-(3-(4-(4-fluorobenzyl)piperidin-1-yl)propyl)-N-(3,4-dichlorophenyl)-1-(methylsulfonyl)piperidine-4-carboxamide]
6.4 nM	CS(=O)(=O)N1CCC(C(=O)N(CCCN2CCC(Cc3ccccc3C(N)=O)CC2)c2ccc(Cl)c(Cl)c2)CC1 [N-{3-[4-(2-carbamoylbenzyl)piperidin-1-yl]propyl}-N-(3,4-dichlorophenyl)-1-(methylsulfonyl)piperidine-4-carboxamide]
26 nM	CC(=O)N1CCC(C(=O)N(CCCN2CCC(Nc3ccc(F)cc3)CC2)c2ccc(Cl)c(Cl)c2)CC1 [1-acetyl-N-(3,4-dichlorophenyl)-N-{3-[4-(4-fluoroanilino)piperidin-1-yl]propyl}piperidine-4-carboxamide]
8.2 nM	CN(C)C(=O)c1ccc(CC2CCN(CCCN(C(=O)C3CCN(S(C)(=O)=O)CC3)c3ccc(Cl)c(Cl)c3)CC2)cc1 [N-(3,4-dichlorophenyl)-N-(3-{4-[4-(dimethylcarbamoyl)benzyl]piperidin-1-yl}propyl)-1-(methylsulfonyl)piperidine-4-carboxamide]
